Read-outs that look alike come from different tables or passages of the source.
What was measured:
[1] = system: actinic keratoses lesions; assay: Topical photosensitizer plus red OLED illumination of actinic keratoses lesions; details: 20% topical solution; illuminated with red OLED about 14-18 hours after application
Method: About 14-18 hours after application, the treated lesions are illuminated with a red light-emitting OLED device constructed as set forth in Example 2.
The treatment is repeated as needed.
The excess cream is removed with saline, and the lesions are illuminated with the red light-emitting OLED constructed as set forth in Example 2.

[2] = set-up: species or system person; details: in vivo, iv
[3] = Intravenous verteporphin plus red OLED illumination of the retina, pathological myopia; type: in vivo, person; details: about 6 mg/m^2 i.v.; retina illuminated with red OLED about 15 minutes after start of infusion
Method: Verteporphin is intravenously injected, over a period of about 10 minutes at a rate of about 3 mL/min, to a person suffering from pathological myopia. The verteporphin (7.5 mL of 2 mg/mL reconstituted solution, available as Visudyne® from Novartis) is diluted with 5% dextrose to a volume of 30 mL using a sufficient quantity of the reconstituted verteporphin so that the total dose injected is about 6 mg/m^2 of body surface. About 15 minutes after the start of the 10 minute infusion of verteporphin, the verteporphin is activated by illuminating the retina with a red light-emitting OLED device as set forth in Example 2. […] The treatment is repeated as needed.

[4] = Intravenous verteporphin plus red OLED illumination of the retina, age-related macular degeneration; type: in vivo, person; details: about 6 mg/m^2 i.v.; retina illuminated with red OLED about 15 minutes after start of infusion
Method: Verteporphin is intravenously injected, over a period of about 10 minutes at a rate of about 3 mL/min, to a person suffering from age-related macular degeneration. The verteporphin (7.5 mL of 2 mg/mL reconstituted solution, available as Visudyne® from Novartis) is diluted with 5% dextrose to a volume of 30 mL using a sufficient quantity of the reconstituted verteporphin so that the total dose injected is about 6 mg/m^2 of body surface. About 15 minutes after the start of the 10 minute infusion of verteporphin, the verteporphin is activated by illuminating the retina with a red light-emitting OLED device as set forth in Example 2.

SMILES	number or severity of the lesions after treatment [1]	patient's vision after treatment [2]	patient's vision after treatment [3]	patient's vision after treatment [4]
Cl.NCC(=O)CCC(=O)O [5-Aminolevulinic acid HCl]	reduced			
C=Cc1c(C)c2cc3nc(cc4[nH]c(cc5nc(cc1[nH]2)C(C)=C5CCC(=O)O)c(CCC(=O)OC)c4C)[C@@]1(C)C3=CC=C(C(=O)OC)[C@H]1C(=O)OC [Verteporphin]		stabilized	stabilized	stabilized
